Results from US9863955B2, “AMPK activator screening method, and AMPK activator” (KYORIN PHARMACEUTICAL CO., LTD., priority 2012, dated 2018).
Blank lines part the entries; values can stand above or below the molecule they belong to.

Tests used:
[1] = system: PHB1; test: Western blotting of HepG2 cells cultured with compound A: PHB1; assay type: cell-based, human; conditions: various final concentrations, 3 hours culture (FIG. 8)
Procedure: (§1) Compound A was added to a HepG2 cell culture system to various final concentrations, and after culturing the resultant for 3 hours, the cells were lysed in a lysis buffer to obtain a cell extract. The thus obtained cell extract was used for performing SDS-PAGE so as to separate proteins contained in the extract in accordance with their sizes, and the resultant was transferred to a PVDF membrane to detect PHB1, PHB2, AMPKα and phosphorylated AMPKα by Western blotting.

[2] = target: T1, interaction between PHB1 and AMPK (Homo sapiens, UniProt P35232); test: GST pull down assay of GST-PHB1 protein and AMPK in the presence of compound A; assay type: binding; conditions: compound A final concentration 10 μM, 3 hours at 4° C., Western blotting (FIG. 7)
T1 construct: purchased Abnova Corp. (GST-PHB1); Calbiochem (AMPK)
T1 sequence (P35232 1-272): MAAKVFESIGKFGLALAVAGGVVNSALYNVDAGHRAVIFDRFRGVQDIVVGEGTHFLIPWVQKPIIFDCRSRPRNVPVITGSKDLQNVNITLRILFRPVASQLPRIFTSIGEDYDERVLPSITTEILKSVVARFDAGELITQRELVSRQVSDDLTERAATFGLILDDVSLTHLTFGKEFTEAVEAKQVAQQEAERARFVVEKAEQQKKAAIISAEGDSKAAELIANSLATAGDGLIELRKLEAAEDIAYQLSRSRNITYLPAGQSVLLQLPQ
Procedure: Specifically, Glutathione Sepharose 4 Fast Flow carrier (GE Healthcare) was bound to each of commercially available GST protein, a GST fusion PHB1 protein (hereinafter also referred to as GST-PHB1 protein) (Abnova Corp.) and a GST fusion PHB2 protein (hereinafter also referred to as the GST-PHB2 protein) (Abnova Corp.) to obtain GST carrier-protein complexes. Each of the GST carrier-protein complexes and AMPK (Calbiochem) were incubated in a NET buffer (0.5% NP-40, 50 mM Tris-HCl pH 7.5, 50 mM sodium chloride, and 5 mM EDTA) for 3 hours at 4° C. for binding. After washing the resultant with a NET buffer, a sample buffer (50 mM Tris-HCl pH 6.8, 2% SDS, 10% glycerin, 1% β-mercaptoethanol, 12.5 mM EDTA, and 0.02% bromophenol blue) was added thereto to prepare a sample. The thus obtained sample was separated by SDS-PAGE, the resultant was transferred to a PVDF membrane and subjected to Western blotting using anti-AMPKα and anti-GST antibodies, so as to detect whether or not AMPK was bound to GST protein, GST-PHB1 protein or GST-PHB2 protein bound to Gluthathione Sepharose to be pulled down.
GST-PHB1 protein (500 ng) was bound to Glutathione Sepharose 4 Fast Flow (10 μL) to obtain a GST carrier-protein complex. […]

[3] = system: PHB2; test: Western blotting of HepG2 cells cultured with compound A: PHB2; assay type: cell-based, human; conditions: various final concentrations, 3 hours culture (FIG. 8)
Procedure: as §1

[4] = system: ACC; test: Western blotting of HepG2 cells cultured with compound A: ACC; assay type: cell-based, human; conditions: various final concentrations, 3 hours culture (FIG. 8)
[5] = system: AMPKα; test: Western blotting of HepG2 cells cultured with compound A: AMPKα; assay type: cell-based, human; conditions: various final concentrations, 3 hours culture (FIG. 8)
Procedure: as §1

[6] = system: human PHB1; test: Real-time PCR of HepG2 cells transfected with siRNA: PHB1; assay type: cell-based; conditions: 72 hours after transfection (FIG. 1)
Excerpt: (§2) Human hepatoma cell line HepG2 cells were transfected with siRNA (Stealth RNAi, Invitrogen) against human PHB1 or human PHB2 using Lipofectamine RNAiMAX (Invitrogen).
(§3) Seventy-two hours after the transfection, RNA was extracted from siRNA transfected cells using RNeasy Mini Kit (Qiagen). The thus obtained RNA was reverse transcribed into a cDNA using High Capacity cDNA Reverse Transcription Kit (Applied Biosystems). The resultant cDNA was subjected to real-time PCR by TaqMan Gene Expression Assays (Applied Biosystems, PHB1: Hs_00855044_gl, PHB2: Hs_00200720_ml) using 7500 Fast Real-Time PCR system (Applied Biosystems), and thus, the influence of the knockdown of PHB1 or PHB2 on the amount of gene expression was detected.

[7] = system: human PHB2; test: Real-time PCR of HepG2 cells transfected with siRNA: PHB2; assay type: cell-based; conditions: 72 hours after transfection (FIG. 1)
Excerpt: as §2, §3

- AMPKα pulled down by GST-PHB1 protein [2]: remarkably decreased
Molecule: CCCCN1C(=O)CN(Cc2ccc(OC)c(C(=O)NCc3ccc(Oc4ccc(F)cc4)cc3)c2)C1=O [compound A, 5(2,4-dioxo-3-butylimidazolidin-1-yl)methyl-2-methoxy-N-[4-(4-fluorophenoxy)phenylmethyl]benzamide]
- amount of PHB1 [1]: does not remarkably affect
- amount of PHB2 [3]: does not remarkably affect
- amount of ACC [4]: does not remarkably affect
- level of phosphorylated ACC [4]: increased by compound A in a concentration-dependent manner
- amount of AMPKα [5]: does not remarkably affect
- level of phosphorylated AMPKα [5]: increased by compound A in a concentration-dependent manner

Molecule: siPHB1: siRNA (Stealth RNAi, Invitrogen) against human PHB1, SEQ ID NO: 1 and 2 (chain 1 UUGGCAAUCAGCUCAGCUGCCUUGG; chain 2 CCAAGGCAGCUGAGCUGAUUGCCAA; Stealth RNAi (Invitrogen), modifications not given here)
- amount of transcription of PHB1 [6]: specifically depressed

Molecule: siPHB2: siRNA (Stealth RNAi, Invitrogen) against human PHB2, SEQ ID NO: 3 and 4 (chain 1 UACGAUUCUGUGAUGUGGCGAUCGU; chain 2 ACGAUCGCCACAUCACAGAAUCGUA; Stealth RNAi (Invitrogen), modifications not given here)
- amount of transcription of PHB2 [7]: specifically depressed
